One series concerns U-118 MG. Briefly: MTT assay, U-118 MG. Conditions: Homo sapiens, 24 h of incubation, read-out: IC50 values ± SEM, MTT assay. The series is classed as cell-based. How it is done: (§1) Human glioblastoma cell lines (A172 CRL-1620™, U-87 MG HTB-14™, U-118 MG HTB-15™, T98G CRL-1690™) and the mouse astrocyte cell line (C8-D1A CRL-2541™) were obtained from the American Type Culture Collection (ATCC, Manassas, VA, USA). The cell lines were cultured in complete medium: DMEM (Corning, Kennebunk, ME, USA) for C8-D1A and T98G, and EMEM (ATCC, Manassas, VA, USA) for A172, U-87 MG, U118MG. The media were supplemented with 10% foetal bovine serum (Eurx, Gdansk, Poland) and 1% penicillin-streptomycin solution (Corning, Kennebunk, ME, USA). Cells were cultured in cell culture flasks (Sarstedt, Numbrecht, Germany) at 37 °C in 5% CO2. For experiments, cells were washed with phosphate-buffered saline without calcium and magnesium (Corning, Kennebunk, ME, USA) and treated with 0.05% trypsin and 0.02% EDTA (Corning, Kennebunk, ME, USA). Cells were counted using a Sceptre 3.0 cell counter (Merck Millipore, Burlington, MA, USA) prior to seeding into plates. For 6-well plates, 5 x 10^5 cells/mL were seeded, while for 96-well plates (Sarstedt, Numbrecht, Germany), 1 x 10^5 cells/mL were seeded in 100 μL of the medium.
(§2) The cell lines were seeded in 96-well plates and cultured according to the methodology described in the previous section. Cells were then treated with the novel derivatives MM118 and MM119 and the reference compound temozolomide (TMZ) (Sigma-Aldrich, St. Louis, MO, USA) at concentrations of 0.1, 0.25, 0.5, 1.0, 2.5, 5.0, and 10.0 μM for 24 h. The MTT assay was performed using a solution of 3–(4,5-dimethyl-2-thiazolyl)-2,5-diphenyl-2H-tetrazolium bromide (Sigma-Aldrich, St. Louis, MO, USA) at a concentration of 5 mg/mL in phosphate-buffered saline without calcium and magnesium (Corning, Kennebunk, ME, USA). After 24 h incubation with test compounds, 10 μL MTT solution was added to each well, and cells were incubated for another 2 h at 37 °C. The cells were then lysed in 100 μL lysis buffer (25 mM HCl, 2% acetic acid, 3% DMF, and 5% SDS, adjusted to pH 4.7). Absorbance was measured at 570 nm using an Absorbance 96 microplate reader (Byonoy GmbH, Hamburg, Germany).
For orientation: Formazan colour is commonly taken as a measure of viable cells.

The subject of another series is C8-D1A. As to the kind of experiment: MTT assay, C8-D1A astrocytes. The series is classed as cell-based. Conditions: C8-D1A mouse astrocytes, 24 h of incubation. How it is done:
as §1, §2

A further series has as its system A172. As to the kind of experiment: MTT assay, A172. The series is classed as cell-based. Conditions: Homo sapiens, A172, 24 h of incubation. As to the method:
as §1, §2

The subject of another series is U-87 MG. Briefly: MTT assay, U-87 MG. The series is classed as cell-based. Conditions: Homo sapiens, 24 h of incubation. How it is done:
as §1, §2

In the next series the test system is T98G. As to the kind of experiment: MTT assay, T98G. The series is classed as cell-based. Conditions: Homo sapiens, 24 h of incubation. As to the method:
as §1, §2

In a further series the test system is DNA. Set-up: method as in PMID 36835469. Conditions: comet assays; cited from earlier work.
Where [1] appears, read: read-out: IC50 values ± SEM, MTT assay.
The mark [2] stands for this setting: A 172, read-out: IC50 values ± SEM, MTT assay.
The mark [3] stands for this setting: 24 h, heading: IC50 values ± SEM, MTT assay.

SMILES strings stand for the structures. Read-outs that look alike come from different tables or passages of the source.

For orientation: IC50 means the concentration that inhibits the measured activity by half.

Regarding `Cc1nn(-c2ccc(S(=O)(=O)N[C@@H](CO)CC(C)C)cc2)c2nn3nnnc3nc12` [MM124], the IC50 with U-118 MG, in the series on C8-D1A (setting [1]), with A172 (setting [2]), with U-87 MG (setting [1]) and with T98G (setting [1]) was more than 10 µM throughout.

As to `Cc1nn(-c2ccc(S(=O)(=O)NC[C@H](O)CO)cc2)c2nn3nnnc3nc12` [MM126], the IC50 with U-118 MG, in the series on C8-D1A (setting [1]), in the series with A172 (setting [2]), in the series on U-87 MG (setting [1]) and in the series with T98G (setting [1]) was more than 10 µM in each case.

In the case of `Cc1nn(-c2ccc(S(=O)(=O)NC[C@@H](O)CO)cc2)c2nn3nnnc3nc12` [MM127], the IC50 in the series on U-118 MG, with C8-D1A (setting [1]), in the series on A172 (setting [2]), in the series with U-87 MG (setting [1]) and in the series with T98G (setting [1]) was more than 10 µM each time.

Regarding `COC(=O)C1CCCN1S(=O)(=O)c1ccc(-n2nc(C)c3nc4nnnn4nc32)cc1` (stereo not shown) [MM128, Methyl 1-[4–(7-methyl-5H-pyrazolo[4,3-e]tetrazolo[1,5-b][1]^,[2]^,[4]triazin-5-yl)phenylsulfonyl]-pyrrolidine-2-carboxylate], the IC50 with U-118 MG turned out to be 563 µM; in the series with A172 (A 172, 24 h, heading: IC50 values ± SEM, MTT assay), 1.65 µM; in the series on T98G (setting [3]), 1.53 µM.

`COC(=O)C1CC(O)CN1S(=O)(=O)c1ccc(-n2nc(C)c3nc4nnnn4nc32)cc1` (stereo not shown) [MM129, Methyl (Z)-4-hydroxy-1-[4–(7-methyl-5H-pyrazolo[4,3-e]tetrazolo[1,5-b][1]^,[2]^,[4]triazin-5-yl)phenyl-sulfonyl]pyrrolidine-2-carboxylate]: in the series with DNA, the “DNA damage (single-strand and double-strand breaks)” value is “induce DNA damage”. Moreover, the IC50 in the series with C8-D1A (setting [3]) stood at 2.86 µM; with U-87 MG (setting [3]), 2.35 µM.

On to `Cc1nn(-c2ccc(S(=O)(=O)N[C@H](C)CO)cc2)c2nn3nnnc3nc12` [MM131], for which the “DNA damage (single-strand and double-strand breaks)” value in the series with DNA is listed as “induce DNA damage”.
